In PubChem BioAssay AID2060907 (Molecular Pharmacology Branch, DTP, NCI, 2025):
pIC50: −log10 of the molar value.

Test system: 388556-164-R-J1-PDC complex spheroid viability
Assay: Anticancer human tumor 388556-164-R-J1-PDC patient-derived colon adenocarcinoma cell line growth inhibition [RAS]
Conditions: for pIC50: curve of first compound; for viability, T/C: stronger effect = lower value; active means viability on the fitted dose curve at most 10% of control; inactive means the rest
How it was run: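 Multi-cell-type spheroids: tumor cells plus HUVEC endothelial cells and mesenchymal stem cells. RAS-pathway inhibitors were combined with targeted agents, each dosed in half-log steps down from clinical Cmax, or from 10 microM when Cmax was unknown.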

[1] = second compound 0.000949 µM, first compound 0.00316 µM
[2] = second compound 0.000949 µM, first compound 0.01 µM
[3] = second compound 0.000949 µM, first compound 0.0316 µM
[4] = second compound 0.000949 µM, first compound 0.1 µM
[5] = second compound 0.000949 µM, first compound 0.316 µM
[6] = second compound 0.000949 µM, first compound 1 µM
[7] = second compound 0.003 µM, first compound 0.00316 µM
[8] = second compound 0.003 µM, first compound 0.01 µM
[9] = second compound 0.003 µM, first compound 0.0316 µM
[10] = second compound 0.003 µM, first compound 0.1 µM
[11] = second compound 0.003 µM, first compound 0.316 µM
[12] = second compound 0.003 µM, first compound 1 µM
[13] = second compound 0.00949 µM, first compound 0.00316 µM
[14] = second compound 0.00949 µM, first compound 0.01 µM
[15] = second compound 0.00949 µM, first compound 0.0316 µM
[16] = second compound 0.00949 µM, first compound 0.1 µM
[17] = second compound 0.00949 µM, first compound 0.316 µM
[18] = second compound 0.00949 µM, first compound 1 µM
[19] = second compound 0.03 µM, first compound 0.00316 µM
[20] = second compound 0.03 µM, first compound 0.01 µM
[21] = second compound 0.03 µM, first compound 0.0316 µM
[22] = second compound 0.03 µM, first compound 0.1 µM
[23] = second compound 0.03 µM, first compound 0.316 µM
[24] = second compound 0.03 µM, first compound 1 µM
[25] = second compound 0.0949 µM, first compound 0.00316 µM
[26] = second compound 0.0949 µM, first compound 0.01 µM
[27] = second compound 0.0949 µM, first compound 0.0316 µM
[28] = second compound 0.0949 µM, first compound 0.1 µM
[29] = second compound 0.0949 µM, first compound 0.316 µM
[30] = second compound 0.0949 µM, first compound 1 µM
[31] = second compound 0.3 µM, first compound 0.00316 µM
[32] = second compound 0.3 µM, first compound 0.01 µM
[33] = second compound 0.3 µM, first compound 0.0316 µM
[34] = second compound 0.3 µM, first compound 0.1 µM
[35] = second compound 0.3 µM, first compound 0.316 µM
[36] = second compound 0.3 µM, first compound 1 µM
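Further: spheroids exposed to compound for 7 days before readout.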
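Wherever viability, T/C is given: 100% = DMSO vehicle control luminescence.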

O=C(c1ccc(F)c(F)c1Nc1ccc(I)cc1F)N1CC(O)([C@@H]2CCCCN2)C1 + CCn1c(-c2cccnc2C(C)OC)c2c3cc(ccc31)N1CCOC(CC(NC(=O)C(C(C)C)N(C)C(=O)C3(F)CCN(C(=O)C#CC(C)(C)N(C)C)CC3)C(=O)N3CCCC(N3)C(=O)OCC(C)(C)C2)C1
6.73: pIC50 (second compound 0.03 µM)
6.76: pIC50 (second compound 0.003 µM) | pIC50 (second compound 0.0949 µM) | pIC50 (second compound 0.3 µM)
6.62: pIC50 (second compound 0.000949 µM)
6.61: pIC50 (second compound 0.00949 µM)
inactive: viability, T/C [1] 94% | viability, T/C [2] 91.1% | viability, T/C [3] 81.7% | viability, T/C [4] 70.6% | viability, T/C [5] 43% | viability, T/C [6] 25.2% | viability, T/C [7] 104% | viability, T/C [8] 97.3% | viability, T/C [9] 76.4% | viability, T/C [10] 60.8% | viability, T/C [11] 39.5% | viability, T/C [12] 22.5% | viability, T/C [13] 100% | viability, T/C [14] 96.8% | viability, T/C [15] 77.7% | viability, T/C [16] 64.8% | viability, T/C [17] 47.6% | viability, T/C [18] 22.6% | viability, T/C [19] 115% | viability, T/C [20] 98.1% | viability, T/C [21] 89.9% | viability, T/C [22] 62.5% | viability, T/C [23] 37.6% | viability, T/C [24] 22.3% | viability, T/C [25] 102% | viability, T/C [26] 97.5% | viability, T/C [27] 84.8% | viability, T/C [28] 57.8% | viability, T/C [29] 41.5% | viability, T/C [30] 23.3% | viability, T/C [31] 81.5% | viability, T/C [32] 81.8% | viability, T/C [33] 72.8% | viability, T/C [34] 59.1% | viability, T/C [35] 39.7% | viability, T/C [36] 20.2%

Cc1nc(N2CCC3(CC2)COC(C)C3N)c(CO)nc1Sc1ccnc(N)c1Cl (stereo unspecified) + CCn1c(-c2cccnc2C(C)OC)c2c3cc(ccc31)N1CCOC(CC(NC(=O)C(C(C)C)N(C)C(=O)C3(F)CCN(C(=O)C#CC(C)(C)N(C)C)CC3)C(=O)N3CCCC(N3)C(=O)OCC(C)(C)C2)C1
5.40: pIC50 (second compound 0.0949 µM)
inactive: viability, T/C [3] 97.1% | viability, T/C [4] 95.6% | viability, T/C [5] 77.4% | viability, T/C [6] 55.2% | viability, T/C (second compound 0.000949 µM, first compound 3.16 µM) 56% | viability, T/C (second compound 0.000949 µM, first compound 10 µM) 47.1% | viability, T/C [9] 108% | viability, T/C [10] 93.9% | viability, T/C [11] 76.7% | viability, T/C [12] 66.4% | viability, T/C (second compound 0.003 µM, first compound 3.16 µM) 56% | viability, T/C (second compound 0.003 µM, first compound 10 µM) 44.6% | viability, T/C [15] 91.5% | viability, T/C [16] 99.9% | viability, T/C [17] 82.9% | viability, T/C [18] 61.7% | viability, T/C (second compound 0.00949 µM, first compound 3.16 µM) 57.3% | viability, T/C (second compound 0.00949 µM, first compound 10 µM) 43.7% | viability, T/C [21] 105% | viability, T/C [22] 98.7% | viability, T/C [23] 75.6% | viability, T/C [24] 63.4% | viability, T/C (second compound 0.03 µM, first compound 3.16 µM) 56.4% | viability, T/C (second compound 0.03 µM, first compound 10 µM) 45.1% | viability, T/C [27] 90.1% | viability, T/C [28] 95% | viability, T/C [29] 75% | viability, T/C [30] 62.8% | viability, T/C (second compound 0.0949 µM, first compound 3.16 µM) 56% | viability, T/C (second compound 0.0949 µM, first compound 10 µM) 40.5% | viability, T/C [33] 92.5% | viability, T/C [34] 86.7% | viability, T/C [35] 65.2% | viability, T/C [36] 55.6% | viability, T/C (second compound 0.3 µM, first compound 3.16 µM) 52.4% | viability, T/C (second compound 0.3 µM, first compound 10 µM) 40.1%
5.24: pIC50 (second compound 0.003 µM) | pIC50 (second compound 0.03 µM)
< 5.00: pIC50 (second compound 0.000949 µM)
5.63: pIC50 (second compound 0.3 µM)
5.32: pIC50 (second compound 0.00949 µM)

C=CC(=O)N1CCN(c2nc(OCC3CCCN3C)nc3c(F)c(-c4nc(N)cc(C)c4C(F)(F)F)c(Cl)cc23)C(C)C1 (stereo unspecified) + CCn1c(-c2cc(N3CCN(C)CC3)cnc2C(C)OC)c2c3cc(ccc31)-c1csc(n1)CC(NC(=O)C1CC1C)C(=O)N1CCCC(N1)C(=O)OCC(C)(C)C2
> 8.50: pIC50 (second compound 0.0949 µM) | pIC50 (second compound 0.3 µM)
< 6.00: pIC50 (second compound 0.000949 µM) | pIC50 (second compound 0.003 µM) | pIC50 (second compound 0.00949 µM) | pIC50 (second compound 0.03 µM)
inactive: viability, T/C [1] 90.9% | viability, T/C [2] 97.7% | viability, T/C [3] 86.2% | viability, T/C [4] 91.5% | viability, T/C [5] 92.1% | viability, T/C [6] 93.5% | viability, T/C [7] 94.8% | viability, T/C [8] 83.5% | viability, T/C [9] 92.7% | viability, T/C [10] 86.9% | viability, T/C [11] 86.5% | viability, T/C [12] 84.2% | viability, T/C [13] 87% | viability, T/C [14] 79.5% | viability, T/C [15] 78.8% | viability, T/C [16] 70.4% | viability, T/C [17] 85% | viability, T/C [18] 65.9% | viability, T/C [19] 63.6% | viability, T/C [20] 68.7% | viability, T/C [21] 62.2% | viability, T/C [22] 62.3% | viability, T/C [23] 63.3% | viability, T/C [24] 62% | viability, T/C [25] 43.2% | viability, T/C [26] 39.9% | viability, T/C [27] 43.1% | viability, T/C [28] 49.5% | viability, T/C [29] 52.8% | viability, T/C [30] 45.6% | viability, T/C [31] 33.2% | viability, T/C [32] 31% | viability, T/C [33] 30.9% | viability, T/C [34] 34.9% | viability, T/C [35] 38% | viability, T/C [36] 32%
